Data published in patent US6399349B1, “Human aminopeptidase P gene” (priority 1997, dated 2002).
Read-outs that look alike come from different tables or passages of the source. Each block holds one compound with its values, some of them ahead of it. Where no end group is shown, it is not given here. [ ]: non-standard residue; d: D form. Hyp = O=C(O)[C@@H]1C[C@@H](O)CN1

Tests used:
Pig kidney AmP = molecular target: T1, Pig kidney AmP (Sus scrofa, UniProt Q95333); conditions: concentration that derivatizes two H residues per molecule of AmP; cited from earlier work
T1 construct: host or cells: pig kidney
T1 sequence (Q95333 22-649): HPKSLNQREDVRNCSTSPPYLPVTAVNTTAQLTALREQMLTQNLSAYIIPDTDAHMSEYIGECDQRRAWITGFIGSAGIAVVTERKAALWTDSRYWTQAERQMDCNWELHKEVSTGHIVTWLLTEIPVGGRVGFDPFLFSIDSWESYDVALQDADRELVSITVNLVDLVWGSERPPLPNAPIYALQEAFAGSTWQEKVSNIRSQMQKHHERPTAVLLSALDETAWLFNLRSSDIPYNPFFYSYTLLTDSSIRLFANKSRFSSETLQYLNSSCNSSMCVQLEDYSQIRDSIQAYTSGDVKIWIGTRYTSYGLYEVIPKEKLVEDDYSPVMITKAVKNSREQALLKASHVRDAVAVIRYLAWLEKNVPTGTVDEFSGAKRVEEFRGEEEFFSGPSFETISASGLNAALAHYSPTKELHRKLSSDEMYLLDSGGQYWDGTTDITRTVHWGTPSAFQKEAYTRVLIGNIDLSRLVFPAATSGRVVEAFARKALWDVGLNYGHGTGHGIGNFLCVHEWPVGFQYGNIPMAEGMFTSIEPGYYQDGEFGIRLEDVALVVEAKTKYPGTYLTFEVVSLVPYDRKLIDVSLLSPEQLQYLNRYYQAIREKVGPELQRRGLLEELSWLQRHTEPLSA

AmP = conditions: cited from earlier work
[1] = molecular target: rat lung aminopeptidase P (rat) (UniProt Q99MA2); experiment: cell-based or functional assay
AmP and ACE = experiment: Mean systemic arterial blood pressure effects of BK injected i.v. or i.a. (log dose-response curves)
Procedure: To the extent that pulmonary AmP contributes to BK inactivation, saturation of AmP with an inhibitor or alternative substrate should, in effect, potentiate blood pressure effects of i.v. BK.
To clarify relative contributions of ACE and AmP to the metabolic fate of BK administered i.v., blood pressure effects of i.v. BK under control conditions and then after administration of a long-acting ACE inhibitor, RAC-X-65, were compared. After ACE inhibition, BK was injected (i.v. and i.a.) alone or BK co-mixed with APPBz at a dose capable of saturating AmP (2 μmol/kg).

[2] = molecular target: T2, pulmonary endothelial AmP (Rattus norvegicus, UniProt Q99MA2); experiment: in vivo; conditions: read-out: ED50: coinjected dose that reduces hydrolysis of APPBz-3H by half
T2 sequence (Q99MA2 23-650): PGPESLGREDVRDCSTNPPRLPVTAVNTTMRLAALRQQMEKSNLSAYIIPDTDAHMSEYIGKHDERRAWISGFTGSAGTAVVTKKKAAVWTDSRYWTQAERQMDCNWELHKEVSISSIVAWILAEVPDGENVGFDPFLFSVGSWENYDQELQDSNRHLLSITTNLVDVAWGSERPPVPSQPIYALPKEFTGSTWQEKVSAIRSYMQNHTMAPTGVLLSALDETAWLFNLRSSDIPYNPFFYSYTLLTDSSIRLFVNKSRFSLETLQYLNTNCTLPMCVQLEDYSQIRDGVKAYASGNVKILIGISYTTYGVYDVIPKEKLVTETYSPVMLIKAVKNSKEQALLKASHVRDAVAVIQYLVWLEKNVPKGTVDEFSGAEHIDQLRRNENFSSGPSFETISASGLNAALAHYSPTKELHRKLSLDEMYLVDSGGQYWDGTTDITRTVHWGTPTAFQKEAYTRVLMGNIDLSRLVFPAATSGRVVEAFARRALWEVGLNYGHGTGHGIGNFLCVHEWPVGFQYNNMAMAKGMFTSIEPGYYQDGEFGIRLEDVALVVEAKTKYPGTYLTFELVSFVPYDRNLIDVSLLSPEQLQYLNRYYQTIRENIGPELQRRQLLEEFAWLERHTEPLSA
Procedure: (§1) The immediate metabolic fate of the AmP synthetic substrate Arg-Pro-Pro-[^3H]benzylamide (APPBz-^3H) (20 Ci/mmol) during a single transit from the right heart to the left was examined. Effects of increasing quantities of carrier APPBz and alternative AmP substrates such as bradykinin (BK) and des-Arg^9-BK (31) were then measured.

[3] = 2-3 sec, right to left side of the heart; cited from earlier work
guinea pig serum AmP = conditions: in vitro; cited from earlier work
[4] = molecular target: T2, pulmonary endothelial AmP; conditions: coinjected with tracer APPBz-3H
Procedure: as §1

Compound: CCOC(=O)OC(=O)OCC [diethylpyrocarbonate]
inactivation of pig kidney AmP (Pig kidney AmP): completely inactivated

Compound: NC(=O)CI [iodoacetamide]
inhibition of AmP (AmP): not inhibited

dose that completely inhibits the hydrolysis of coinjected APPBz-^3H [1]: 2 µmol/kg
dose that reduces by half the fractional hydrolysis of coinjected APPBz-^3H in a single pulmonary transit in vivo [1]: 42 nmol/kg b.w.
Compound: Arg-Pro-Pro-benzylamide (peptide)

Compound: O=C(O)c1cc[c]([Hg+])cc1.[OH-] [p-hydroxy-mercuribenzoate]
inhibition of AmP (AmP; low concentration (~10 nM)): ~70%

ED50 for inhibition of the hydrolysis of coinjected APPBz-^3H in vivo [1]: 107 nmol/kg
Compound: des-Arg^9-bradykinin (peptide)

Compound: C[C@H](N[C@@H](CCC(=O)Nc1ccccc1)C(=O)O)C(=O)N1CCC[C@H]1C(=O)O (racemic) [RAC-X-65]
factor by which i.v. BK curves lay to the right of i.a. curves after ACE inhibition (AmP and ACE; after ACE inhibition): about four
effect of ACE inhibition on BK log dose-response curves (AmP and ACE; long-acting ACE inhibitor, BK i.v. and i.a.): shifted both i.v. and i.a. log dose-response curves leftward

Compound: bradykinin (peptide)
dose that reduces by half the hydrolysis of coinjected APPBz-^3H in vivo [1]: 13 nmol/kg

Compound: RPPGFSPFR [BK, Arg-Pro-Pro-Gly-Phe-Ser-Pro-Phe-Arg]
ED50 [2]: 0.013 µmol/kg
number of half-lifes BK is degraded through in a single transit [3]: 5-8 half-lifes
degradation of BK by AmP alone (AmP and ACE; computed from 4-fold potentiation, PF=2^n, less than three sec): 75%

Compound: Gly-Pro-Hyp-Gly-Ala-Gly (GP[Hyp]GAG) [AAP, putative hormone called antiarrhythmic peptide]
binding of AAP by AmP (guinea pig serum AmP): high affinity

ED50: coinjected dose that reduces hydrolysis of APPBz-3H by half [4]: 107 nmol/kg
Compound: des-Arg^9-BK: alternative AmP substrate, bradykinin lacking Arg9 (RPPGFSPF)

ED50: coinjected dose that reduces hydrolysis of APPBz-3H by half [4]: 30 nmol/kg
Compound: des-Arg^1-BK: BK fragment formed by AmP; not a substrate but binds to the catalytic site (PPGFSPFR)
affinity for AmP relative to BK (AmP): as great an affinity for AmP as BK itself

Compound: CCN1C(=O)C=CC1=O [N-ethylmaleimide]
inhibition of AmP (AmP): not inhibited
